Reference: US10513521B2, “Compositions and methods for inhibiting BMP” (The Brigham and Women's Hospital, Inc., priority 2014, dated 2019)
Changes are numbered by the printed parent chain.

Assays:
[1] = molecular target: T1, ALK2 (Homo sapiens, UniProt Q04771); experiment: TR-FRET enzymatic ALK kinase assay, ALK2
T1 sequence (Q04771 21-509): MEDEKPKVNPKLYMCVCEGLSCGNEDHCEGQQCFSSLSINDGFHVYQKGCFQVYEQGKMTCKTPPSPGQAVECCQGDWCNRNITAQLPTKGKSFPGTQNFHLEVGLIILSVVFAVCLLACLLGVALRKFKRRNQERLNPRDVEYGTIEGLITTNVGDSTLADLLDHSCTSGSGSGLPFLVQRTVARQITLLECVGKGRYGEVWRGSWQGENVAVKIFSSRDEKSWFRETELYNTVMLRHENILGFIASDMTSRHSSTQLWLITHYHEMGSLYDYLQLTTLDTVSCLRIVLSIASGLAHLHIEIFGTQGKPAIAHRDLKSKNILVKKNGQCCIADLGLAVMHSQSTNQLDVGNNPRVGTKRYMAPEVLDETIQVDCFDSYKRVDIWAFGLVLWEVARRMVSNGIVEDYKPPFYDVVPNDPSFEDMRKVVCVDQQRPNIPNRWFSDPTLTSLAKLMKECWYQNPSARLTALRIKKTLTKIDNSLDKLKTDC
Procedure: (§1) Briefly, the ALKs enzymatic assay was initiated by dispense 2.5 μl enzyme in 1× kinase reaction buffer. The assay plate was then added with compounds followed by incubation at room temperature for 10 minutes. Then 2.5 μl/well substrate was added.

[2] = molecular target: ALK1 (Homo sapiens, UniProt P37023); experiment: TR-FRET enzymatic ALK kinase assay, ALK1
Sequence of ALK1 (P37023 22-503): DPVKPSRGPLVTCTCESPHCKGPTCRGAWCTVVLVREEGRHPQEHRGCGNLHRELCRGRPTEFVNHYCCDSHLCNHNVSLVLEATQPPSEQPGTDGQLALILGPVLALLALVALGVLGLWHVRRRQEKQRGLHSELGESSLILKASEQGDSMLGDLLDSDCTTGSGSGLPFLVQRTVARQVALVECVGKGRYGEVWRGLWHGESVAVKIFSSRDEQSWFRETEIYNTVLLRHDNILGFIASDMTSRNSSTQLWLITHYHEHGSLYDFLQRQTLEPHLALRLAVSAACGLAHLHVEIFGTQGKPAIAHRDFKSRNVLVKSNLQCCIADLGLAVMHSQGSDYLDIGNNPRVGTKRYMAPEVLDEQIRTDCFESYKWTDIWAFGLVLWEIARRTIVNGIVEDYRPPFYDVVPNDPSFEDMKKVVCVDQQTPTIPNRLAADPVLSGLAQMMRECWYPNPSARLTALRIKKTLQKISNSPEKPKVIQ
Procedure: as §1

[3] = molecular target: T2, ALK4 (Homo sapiens, UniProt P36896); experiment: TR-FRET enzymatic ALK kinase assay, ALK4
T2 sequence (P36896 24-505): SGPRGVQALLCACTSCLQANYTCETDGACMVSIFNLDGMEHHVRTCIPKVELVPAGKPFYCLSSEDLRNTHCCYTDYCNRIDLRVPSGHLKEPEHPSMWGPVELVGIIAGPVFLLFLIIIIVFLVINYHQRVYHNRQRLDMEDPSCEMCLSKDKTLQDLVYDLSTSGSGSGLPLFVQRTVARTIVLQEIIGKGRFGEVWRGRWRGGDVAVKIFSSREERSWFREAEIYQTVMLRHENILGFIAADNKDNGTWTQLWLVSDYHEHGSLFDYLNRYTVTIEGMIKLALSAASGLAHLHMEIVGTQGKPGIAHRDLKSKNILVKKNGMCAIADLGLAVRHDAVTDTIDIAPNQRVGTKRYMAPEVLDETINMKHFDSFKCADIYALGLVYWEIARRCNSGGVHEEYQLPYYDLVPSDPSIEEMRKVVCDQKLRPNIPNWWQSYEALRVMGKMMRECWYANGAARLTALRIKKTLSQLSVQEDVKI
Procedure: as §1

[4] = molecular target: ALK3 (Homo sapiens, UniProt P36894); experiment: TR-FRET enzymatic ALK kinase assay, ALK3
Sequence of ALK3 (P36894 24-532): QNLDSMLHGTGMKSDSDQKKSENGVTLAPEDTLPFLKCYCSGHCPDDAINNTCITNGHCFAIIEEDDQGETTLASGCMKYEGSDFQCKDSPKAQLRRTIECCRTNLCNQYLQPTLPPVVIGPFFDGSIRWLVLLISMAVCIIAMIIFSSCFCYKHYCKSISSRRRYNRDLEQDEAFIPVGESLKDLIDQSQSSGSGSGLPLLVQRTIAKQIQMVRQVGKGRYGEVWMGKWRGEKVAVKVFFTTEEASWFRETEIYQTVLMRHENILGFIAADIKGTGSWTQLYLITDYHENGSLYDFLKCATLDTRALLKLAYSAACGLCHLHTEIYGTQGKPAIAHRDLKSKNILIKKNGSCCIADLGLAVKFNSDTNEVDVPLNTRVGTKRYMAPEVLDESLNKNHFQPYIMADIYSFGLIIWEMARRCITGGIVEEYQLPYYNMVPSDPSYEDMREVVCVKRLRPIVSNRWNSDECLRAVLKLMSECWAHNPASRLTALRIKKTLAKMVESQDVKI
Procedure: as §1

[5] = molecular target: T3, ALK5 (Homo sapiens, UniProt P36897); experiment: TR-FRET enzymatic ALK kinase assay, ALK5
T3 sequence (P36897 34-503): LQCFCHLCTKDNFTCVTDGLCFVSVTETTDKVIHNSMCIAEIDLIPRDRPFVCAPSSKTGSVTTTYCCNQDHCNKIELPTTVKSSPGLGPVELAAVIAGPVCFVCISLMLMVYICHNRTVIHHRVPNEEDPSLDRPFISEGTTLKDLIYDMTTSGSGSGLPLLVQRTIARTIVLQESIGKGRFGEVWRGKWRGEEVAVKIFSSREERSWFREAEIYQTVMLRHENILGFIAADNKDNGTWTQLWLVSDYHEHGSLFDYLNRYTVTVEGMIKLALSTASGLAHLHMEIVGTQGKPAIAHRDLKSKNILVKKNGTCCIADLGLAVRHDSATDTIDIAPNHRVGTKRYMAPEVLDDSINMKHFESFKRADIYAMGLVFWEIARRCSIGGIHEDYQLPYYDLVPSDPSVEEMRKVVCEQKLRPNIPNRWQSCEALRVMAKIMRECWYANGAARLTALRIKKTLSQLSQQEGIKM
Procedure: Six ALK kinase enzyme assays were developed for determination of compound activities on ALK1, ALK2, ALK3, ALK4, ALK5 and ALK6.
as §1

[6] = molecular target: ALK6 (Homo sapiens, UniProt O00238); experiment: TR-FRET enzymatic ALK kinase assay, ALK6
Sequence of ALK6 (O00238 14-502): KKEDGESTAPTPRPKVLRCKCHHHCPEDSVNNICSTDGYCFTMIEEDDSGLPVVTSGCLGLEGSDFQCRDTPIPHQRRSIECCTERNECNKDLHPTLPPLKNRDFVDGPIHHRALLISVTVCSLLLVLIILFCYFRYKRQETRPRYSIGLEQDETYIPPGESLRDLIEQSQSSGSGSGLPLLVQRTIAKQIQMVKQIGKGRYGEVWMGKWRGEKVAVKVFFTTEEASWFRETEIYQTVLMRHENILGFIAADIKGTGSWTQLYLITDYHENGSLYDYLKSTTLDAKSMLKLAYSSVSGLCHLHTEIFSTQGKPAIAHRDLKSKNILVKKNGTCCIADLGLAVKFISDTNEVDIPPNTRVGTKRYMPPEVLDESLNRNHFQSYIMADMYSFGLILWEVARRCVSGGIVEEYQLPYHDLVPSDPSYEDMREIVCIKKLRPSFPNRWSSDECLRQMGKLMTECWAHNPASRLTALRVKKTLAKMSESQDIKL
Procedure: as §1

[7] = molecular target: T4, ALK2 (Mus musculus, UniProt P37172); experiment: HTRF pSMAD1 cell-based ALK2 assay (C2C12 cells, BMP6 as agonist); conditions: cell-based assay, BMP6; read-out: Cell IC50 BMP6
T4 construct: The C2C12 cell line was selected for the measurement of ALK2 activity using BMP6 as the agonist; host or cells: C2C12
T4 sequence (P37172 21-509): T1 sequence (Q04771 21-509) with M1V, P10Q, L121I, D162E, P310S
Procedure: 2. HTRF Cell-Based ALK1 and ALK2 Assays in 384-Well Plate Format We have developed a cell based ALK1 kinase assay and a cell-based ALK2 assay. The BAOEC cell line was employed for the measurement of ALK1 activity using BMP9 as the agonist. The C2C12 cell line was selected for the measurement of ALK2 activity using BMP6 as the agonist. The kinase specificity was defined by the specific cell line and agonist. The kinase activity was determined by the status of SMD 1/5/8 phosphorylation stimulated by the agonist.
HyClone Fetal Bovine Serum was obtained from GE healthcare life sciences (Logan, Utah). BMP6 and BMP9 were purchased from R&D System. […] The compound plates and the white solid MB assay plates were purchased from Greiner Bio-one (Monroe, N.C.).
HTRF optimization experiments were performed in 384 well plate format. […] Pre-starved cells were then plated in 384 well plate in the starvation medium (containing in 0.1% FBS). After 4 hours, compounds were added to the assay plate and incubated for 30 minutes. The assay plate was then added with BMP6 for C2C12 cells or BMP9 for BAOEC cells and incubated for 30 minutes.
HTRF assay was performed to measure the status of SMAD 1 phosphorylation after stimulated with the agonist (Table 3). This HTRF phospho SMAD1 cell assay was developed and optimized for the homogenous detection of phospho SMAD 1 levels in cells. […] The plate was incubated at room temperature for overnight.

C[C@@H]1CNC[C@H](C)N1c1ccc(-c2cnc3c(-c4cccc(CO)c4)cnn3c2)cc1 [Compound 74, (3-(6-(4-((2R,6S)-2,6-dimethylpiperazin-1-yl)phenyl)pyrazolo[1,5-a]pyrimidin-3-yl)phenyl)methanol]
IC50 [1]: 40 nM
IC50 [2]: 150 nM
IC50 [3]: > 10000 nM
IC50 [4]: 1700 nM
IC50 [5]: > 10000 nM
IC50 [6]: > 10000 nM
IC50 [7]: 80 nM

CCS(=O)(=O)c1cccc(-c2cnn3cc(-c4ccc(CCN5CCCCC5)cc4)cnc23)c1 [Compound 106, 3-(3-(ethylsulfonyl)phenyl)-6-(4-(2-(piperidin-1-yl)ethyl)phenyl)pyrazolo[1,5-a]pyrimidine]
IC50 [1]: 66 nM
IC50 [2]: 220 nM
IC50 [3]: > 10000 nM
IC50 [4]: 2200 nM
IC50 [5]: > 10000 nM
IC50 [6]: > 10000 nM
IC50 [7]: 2.2 nM

Cc1ccc([S+](=O)([O-])C(F)(F)F)cc1-c1cnn2cc(-c3ccc(N4[C@H](C)CNC[C@@H]4C)cc3)cnc12 [Compound 107, 6-(4-((2R,6S)-2,6-dimethylpiperazin-1-yl)phenyl)-3-(2-methyl-5-((trifluoromethyl)sulfonyl)phenyl)pyrazolo[1,5-a]pyrimidine]
IC50 [1]: 6600 nM
IC50 [2]: > 10000 nM
IC50 [3]: > 10000 nM
IC50 [4]: > 10000 nM
IC50 [5]: > 10000 nM
IC50 [6]: > 10000 nM
IC50 [7]: 2130 nM

O=[S+]([O-])(c1cccc(-c2cnn3cc(-c4ccc(C5CCNCC5)cc4)cnc23)c1)C1CC1 [Compound 110, 3-(3-(cyclopropylsulfonyl)phenyl)-6-(4-(piperidin-4-yl)phenyl)pyrazolo[1,5-a]pyrimidine]
IC50 [1]: 50 nM
IC50 [2]: 480 nM
IC50 [3]: > 10000 nM
IC50 [4]: 3900 nM
IC50 [5]: > 10000 nM
IC50 [6]: > 10000 nM
IC50 [7]: 710 nM

O=[S+]([O-])(c1cccc(-c2cnn3cc(-c4ccc(CCN5CCCCC5)cc4)cnc23)c1)C1CC1 [Compound 112, 3-(3-(cyclopropylsulfonyl)phenyl)-6-(4-(2-(piperidin-1-yl)ethyl)phenyl)pyrazolo[1,5-a]pyrimidine]
IC50 [1]: 79 nM
IC50 [2]: 1300 nM
IC50 [3]: > 10000 nM
IC50 [4]: 8100 nM
IC50 [5]: > 10000 nM
IC50 [6]: 9800 nM
IC50 [7]: 8 nM

Cc1ccc(S(C)(=O)=O)cc1-c1cnn2cc(-c3ccc(N4[C@H](C)CNC[C@@H]4C)cc3)cnc12 [Compound 116, 6-(4-((2R,6S)-2,6-dimethylpiperazin-1-yl)phenyl)-3-(2-methyl-5-(methylsulfonyl)phenyl)pyrazolo[1,5-a]pyrimidine]
IC50 [1]: 2200 nM
IC50 [2]: > 10000 nM
IC50 [3]: > 10000 nM
IC50 [4]: > 10000 nM
IC50 [5]: > 10000 nM
IC50 [6]: > 10000 nM
IC50 [7]: 319 nM

CS(=O)(=O)c1cccc(-c2cnn3cc(-c4ccc(C(F)(F)CN5CCCC5)cc4)cnc23)c1 [Compound 119, 6-(4-(1,1-difluoro-2-(pyrrolidin-1-yl)ethyl)phenyl)-3-(3-(methylsulfonyl)phenyl)pyrazolo[1,5-a]pyrimidine]
IC50 [1]: 210 nM
IC50 [2]: 530 nM
IC50 [3]: > 10000 nM
IC50 [4]: > 10000 nM
IC50 [5]: > 10000 nM
IC50 [6]: > 10000 nM
IC50 [7]: 1040 nM

CS(=O)(=O)c1cccc(-c2cnn3cc(-c4ccc(C(F)(F)CN5CCCCC5)cc4)cnc23)c1 [Compound 120, 6-(4-(1,1-difluoro-2-(piperidin-1-yl)ethyl)phenyl)-3-(3-(methylsulfonyl)phenyl)pyrazolo[1,5-a]pyrimidine]
IC50 [1]: > 10000 nM
IC50 [2]: > 10000 nM
IC50 [3]: > 10000 nM
IC50 [4]: > 10000 nM
IC50 [5]: > 10000 nM
IC50 [6]: > 10000 nM
IC50 [7]: 3600 nM

CS(=O)(=O)c1cccc(-c2cnn3cc(-c4ccc(C(F)(F)CN5CCOCC5)cc4)cnc23)c1 [Compound 121, 4-(2,2-difluoro-2-(4-(3-(3-(methylsulfonyl)phenyl)pyrazolo[1,5-a]pyrimidin-6-yl)phenyl)ethyl)morpholine]
IC50 [1]: 350 nM
IC50 [2]: 690 nM
IC50 [3]: > 10000 nM
IC50 [4]: > 10000 nM
IC50 [5]: > 10000 nM
IC50 [6]: > 10000 nM
IC50 [7]: 836 nM

CS(=O)(=O)c1cccc(-c2cnn3cc(-c4ccc(C(F)(F)CN5CCNCC5)cc4)cnc23)c1 [Compound 122, 6-(4-(1,1-difluoro-2-(piperazin-1-yl)ethyl)phenyl)-3-(3-(methylsulfonyl)phenyl)pyrazolo[1,5-a]pyrimidine]
IC50 [1]: 250 nM
IC50 [2]: 370 nM
IC50 [3]: > 10000 nM
IC50 [4]: > 10000 nM
IC50 [5]: > 10000 nM
IC50 [6]: > 10000 nM
IC50 [7]: 2 nM

CC(O)c1cccc(-c2cnn3cc(-c4ccc(CN5CCCCC5)cc4)cnc23)c1 (stereo not drawn) [Compound 124, 1-(3-(6-(4-(piperidin-1-ylmethyl)phenyl)pyrazolo[1,5-a]pyrimidin-3-yl)phenyl)ethanol]
IC50 [1]: 100 nM
IC50 [2]: 440 nM
IC50 [3]: > 10000 nM
IC50 [4]: > 10000 nM
IC50 [5]: > 10000 nM
IC50 [6]: > 10000 nM
IC50 [7]: 5.38 nM

O=[S+]([O-])(c1cccc(-c2cnn3cc(-c4ccc(CN5CCCCC5)cc4)cnc23)c1)C1CC1 [Compound 125, 3-(3-(cyclopropylsulfonyl)phenyl)-6-(4-(piperidin-1-ylmethyl)phenyl)pyrazolo[1,5-a]pyrimidine]
IC50 [1]: 66 nM
IC50 [2]: 430 nM
IC50 [3]: > 10000 nM
IC50 [4]: > 10000 nM
IC50 [5]: > 10000 nM
IC50 [6]: 8400 nM
IC50 [7]: < 1 nM
